1 compound from paper PMC3904663 (Nature, 2013) can be followed below.

The experiment addresses Drosophila melanogaster dopamine transporter (dDATcryst) (Drosophila melanogaster, UniProt Q7K4Y6, V74A/DEL164-206/V275A/V311A/L415A/G538L). Type of experiment: binding.

One may read the Kd as the constant that tells how readily two partners part at equilibrium. Read a high Kd as a looser complex.

For the compound `CNCCC(Oc1ccccc1OC)c1ccccc1` (stereo not shown) [nisoxetine], binding was characterised by a dissociation constant (Kd) of 29 nM.
